The nature of the series: Human HepG2 cell viability assay in 384 well format. Also noted: dose 125 nL, time 70.5 hour; cytotoxicity at 70.5 h: concentration not given beside the values. As to conditions: HepG2 cells, read-out: Inhibition. In kind it is toxicity, cell-based.
Regarding `CCOc1ncccc1C(=O)N1CCCC1c1c(C)nn(C)c1Cl` (centres undefined), the cytotoxicity at 70.5 h stood at 11.9%.

On to `Cc1cnn(CC2CCCN2C(=O)c2ccc(F)cc2Cl)c1` (centres undefined), for which the cytotoxicity at 70.5 h is 0.634%. Turning to `Cc1cnn(CC2CN(CC(=O)N(C)Cc3ccsc3)CCO2)c1` (centres undefined), the cytotoxicity at 70.5 h was found to be 5.76%. For `CC(C)CCCNC(=O)Nc1ccc(C(N)=O)c(Cl)c1`, the cytotoxicity at 70.5 h is -4.82%. On to `CC(C)CCCNC(=O)Nc1ccc(Cl)c(C(N)=O)c1`, for which the cytotoxicity at 70.5 h stood at 1.37%.

As for `CS(=O)(=O)N1CCC(NC(=O)COc2cccc(Cl)c2)CC1`, the cytotoxicity at 70.5 h is 1.43%. To `CCOCCCNC(=O)Nc1ccc(F)c(C(N)=O)c1` belongs 6.9%; to `O=C(CCOc1ccccc1Cl)N1CCN(c2cnccn2)CC1`, 0.75%. To `COC(=O)c1cccn1C1CCN(Cc2cccnc2)CC1` belongs 4.46%.

As for `CCc1nc(CN2CCOC(Cn3nc(C)cc3C)C2)no1` (centres undefined), the cytotoxicity at 70.5 h stood at 38.2%. To `Cc1ccc(C)c(S(=O)(=O)CCNC2CCc3ncnn3C2)c1` (centres undefined) belongs -0.666%; to `Cc1cnn(CC2CCCN2C(=O)c2ccc(Cl)cc2F)c1` (centres undefined), -1.79%; to `COc1ccccc1OCC(=O)NS(=O)(=O)c1ccc(Cl)s1`, -2.89%.

On to `COc1ncccc1C(=O)N1CCCC1c1c(C)nn(C)c1Cl` (centres undefined), for which the cytotoxicity at 70.5 h is -0.671%.

As to `Cc1cn2nc(N3CCCCC3Cn3cccn3)sc2n1` (centres undefined), the cytotoxicity at 70.5 h was 22.5%. To `Cc1cc(C(=O)N2CCCC(n3cncn3)C2)on1` (centres undefined) belongs 26.7%; to `c1cncc(CNC2CCc3ncnn3C2)c1` (centres undefined), 34.5%; to `c1cnn(CC2CN(CC3CCCCC3)CCO2)c1` (centres undefined), -0.377%. To `CC(=O)N(Cc1noc(C)n1)C1CCN(Cc2ccc(C#N)cc2)C1` (centres undefined) belongs 30.3%; to `Cc1ccc(CNCC2CCCN2c2cccnn2)s1` (centres undefined), 4.46%.

`c1cnnc(N2CCCC2CNCc2cccs2)c1` (centres undefined): the cytotoxicity at 70.5 h was -1.72%. For the compound `CCc1nc2n(n1)CC(NCc1cnn(Cc3ccccc3)c1)CC2` (centres undefined), the cytotoxicity at 70.5 h was -5.29%. Take `CC(NCc1nnc2n1CCCC2)C(=O)N1CCc2sccc2C1` (centres undefined): the cytotoxicity at 70.5 h was -2.4%. As for `CC(NC(=O)NCc1ccccc1Cl)c1ccccn1` (centres undefined), the cytotoxicity at 70.5 h came out at 19.4%. To `CC(NC(=O)Cn1ccc(=O)n(C)c1=O)c1ccccc1F` (centres undefined) belongs -5.75%; to `O=C(NCc1ccccn1)NCc1ccc(Cl)s1`, 20.5%.

Turning to `COc1c(CNCc2ccc(CS(C)(=O)=O)cc2)c(C)nn1C`, the cytotoxicity at 70.5 h was 26.4%.

Consider `COc1c(CNCc2ccc(C(=O)N(C)C(C)C)cc2)c(C)nn1C`, for which the cytotoxicity at 70.5 h amounted to 34.2%.

As for `O=C(CCN1CCOC(Cn2cccn2)C1)NC1CCCCC1` (centres undefined), the cytotoxicity at 70.5 h was -0.965%.

As for `Cc1cn2nc(N3CCCC3Cn3cccn3)sc2n1` (centres undefined), the cytotoxicity at 70.5 h is -4.17%. Regarding `Cc1nccn1C1CCCN(C(=O)Cc2cn3ccccc3n2)C1` (centres undefined), the cytotoxicity at 70.5 h came out at 16.9%. Turning to `CC(C)c1cc(C(=O)N2CCCC(n3cncn3)C2)n[nH]1` (centres undefined), the cytotoxicity at 70.5 h amounted to 6.33%. To `Cc1nnc(CN2CCN(C(C)c3nc(C4CC4)no3)CC2)o1` (centres undefined) belongs -1.41%; to `Cn1ccnc1CN1CCCC1Cn1cccn1` (centres undefined), -1.33%; to `CCn1ccnc1CN1CCCN(C(=O)Cc2csc(C)n2)CC1`, -5.98%. With `COc1cccc(CN2CCCCC2Cn2nc(C)nc2C)c1` (centres undefined), the cytotoxicity at 70.5 h was -9.6%. To `CN(C)c1ccc(C(=O)NCc2csc(Br)c2)cn1` belongs -11%; to `CCN(CC)CC1CCN(Cc2ccn(C)c(=O)c2)CC1`, -4.81%. To `O=C(CSCc1ccncc1)NCc1csc(Br)c1` belongs -8.77%; to `Cc1oc(C)c(C(=O)NCc2cccc(C(N)=O)c2)c1C`, -4.54%; to `Cc1ccc(-n2cc(C(=O)N3CCCC(n4cccn4)C3)nn2)cc1` (centres undefined), -5.27%. To `COc1cc(CNCc2c(C)nn(C)c2N(C)C)ccc1C` belongs -3.16%. Turning to `Cc1nccn1C1CCCN(C(=O)C2=NN(C)C(=O)CC2)C1` (centres undefined), the cytotoxicity at 70.5 h is 9.33%. To `O=C(COCC1CC1)N1CCCC(n2cncn2)C1` (centres undefined) belongs -9.93%; to `Cc1nc(C)n(C2CCCN(C(=O)c3csnn3)C2)n1` (centres undefined), -11.1%; to `COc1ccc(C(=O)N2CCCC(C)C2)cc1F` (centres undefined), -2.9%. Turning to `Cc1ccc(N2CCCC(NCc3cccc4c3OCCO4)C2)nn1` (centres undefined), the cytotoxicity at 70.5 h is -4.41%.

Consider `CCOCC(O)CN1CCN(C(=O)C2CC2)CC1` (centres undefined), for which the cytotoxicity at 70.5 h is -13.7%. With `Cc1cc(C)n(C2CCCN(C(=O)C3=NN(C)C(=O)CC3)C2)n1` (centres undefined), the cytotoxicity at 70.5 h was -9.81%. To `COc1cccc(COCC(=O)N2CCCC(c3cc(C)[nH]n3)C2)c1` (centres undefined) belongs -14.7%.

`Cn1cc(N2CCCC(NCc3cccc4c3OCCCO4)C2)cn1` (centres undefined): the cytotoxicity at 70.5 h was -14.6%.

For `CCc1nc(CNC(C)Cn2cccn2)cs1` (centres undefined), the cytotoxicity at 70.5 h was -11.9%.

As for `Cc1cnn(C2CCCN(C(=O)C3=NN(C)C(=O)CC3)C2)c1` (centres undefined), the cytotoxicity at 70.5 h was 22.6%.

On to `COc1ccc(C(=O)N2CCCC(CNS(C)(=O)=O)C2)cc1F` (centres undefined), for which the cytotoxicity at 70.5 h was -10.9%. With `O=C(NCCNc1ncccn1)N1CCN(Cc2cccnc2)CC1`, the cytotoxicity at 70.5 h was found to be 21.2%. The same measure for `Cn1ncc2c1CCCC2NCc1cnc(-c2ccccc2)nc1` (centres undefined): -0.439%; for `Cc1ccc(-c2ncc(C(=O)NCCS(N)(=O)=O)s2)c(C)c1`: -1.3%.

As to `Cc1ccc(-c2ncc(C(=O)NCCNc3ncccn3)s2)c(C)c1`, the cytotoxicity at 70.5 h turned out to be 3.03%. The same measure for `CCN1CCN(CC(O)c2ccc(OC(F)(F)F)cc2)CC1` (centres undefined): 28.9%; for `CC(C)Oc1ncccc1CNC(=O)c1cc[nH]n1`: -7.86%; for `OC(CN1CCOCC1)c1ccc(OC(F)(F)F)cc1` (centres undefined): -9.34%. To `Cc1cnn(CC2CN(Cc3nc(-c4ccoc4)no3)CCO2)c1` (centres undefined) belongs -18.2%. The same measure for `N#Cc1ccccc1OCCN1CCCCC1Cn1cncn1` (centres undefined): -7.56%.

On to `COc1cc(C)nc(N2CCN(C(=O)c3ccccc3C)CC2)n1`, for which the cytotoxicity at 70.5 h is 43.9%. To `COc1ncccc1C(=O)N1CCCC(c2cc(C)[nH]n2)C1` (centres undefined) belongs -2.72%; to `CC(Cn1cccn1)NCc1csc(-c2ccccc2F)n1` (centres undefined), -15.5%; to `CC(NC(=O)CN(C)S(C)(=O)=O)c1nnc2n1CCCCC2` (centres undefined), 48.1%. The same measure for `CC(c1cccc(S(N)(=O)=O)c1)N(C)CCc1ccccc1` (centres undefined): 11.5%; for `CSc1ccc(Cl)c(C(=O)N2CCCC(CNS(C)(=O)=O)C2)c1` (centres undefined): 17.2%. Regarding `O=C(NCC(=O)N1CCCCC1)c1ccoc1`, the cytotoxicity at 70.5 h was -7.84%. Consider `CN(C)c1ncccc1CNS(=O)(=O)c1ccccc1F`, for which the cytotoxicity at 70.5 h was -27.7%. Turning to `O=C(NCCn1ccnc1)N1CCN(Cc2cccs2)CC1`, the cytotoxicity at 70.5 h was -17.2%.

`Cc1ccc(C(=O)NCCNc2ncccc2C#N)c(=O)[nH]1`: the cytotoxicity at 70.5 h amounted to 20.6%. The same measure for `Cc1nn(C)c(N(C)C)c1CNC(C)c1cccc(OC(C)C)c1` (centres undefined): -11.2%; for `Cc1nn(C)c(N(C)C)c1CNC(C)Cc1c(F)cccc1F` (centres undefined): -16.6%; for `CCOc1ncccc1CNC(=O)Nc1ccc(N(C)C)nc1`: 17.3%. To `CN(CC1CCCCC1)C(=O)c1ccc(-n2ncc(C#N)c2N)cc1` belongs -5.32%; to `O=C(Cc1c[nH]c2ccccc12)N1CCC(Nc2cccnn2)CC1`, -10.3%; to `CCN(C(=O)c1ccc(-n2ncc(C#N)c2N)cc1)C1CCCC1`, -12.1%. The same measure for `CCc1nccn1C1CCCN(C(=O)c2csc(NC(C)=O)n2)C1` (centres undefined): -16.5%; for `Cc1ccc(-c2nnc(CNCCn3cc(C)cn3)o2)cc1`: -18.3%. For `O=C(NCCN1CCCCC1)c1ccoc1`, the cytotoxicity at 70.5 h turned out to be 17.6%.

Regarding `CCCn1nc2c(cc1=O)CN(CC(=O)Nc1nnc(C)s1)CC2`, the cytotoxicity at 70.5 h was -22%. The same measure for `CCc1n[nH]c(C2CN(C(=O)c3ncoc3C(C)C)CCO2)n1` (centres undefined): -9.85%.

For `O=C(NCCCn1ccnc1)N1CCN(c2cccs2)CC1`, the cytotoxicity at 70.5 h was -8.6%. For `COCCN1CCCN(C(=O)NC(C)Cn2ccnc2)CC1` (centres undefined), the cytotoxicity at 70.5 h was determined as 2.76%. To `Cc1nc(CNCC2CN(C)CCO2)cs1` (centres undefined) belongs -4.42%; to `CCc1sc(-c2nnc(CNCCn3cc(C)cn3)o2)cc1C`, -1.42%.

Turning to `CCc1nc(C2CCCN2CCn2cncn2)no1` (centres undefined), the cytotoxicity at 70.5 h was -5.31%. To `COCCOc1cccc(C(=O)N2CCCC(n3ccnc3C)C2)c1` (centres undefined) belongs -2.47%. To `Cc1nn(C)c(N(C)C)c1CNC(C)COc1cccc(F)c1` (centres undefined) belongs 23.8%; to `CN(Cc1cn2ccccc2c1C#N)C1CCCN(c2cccnn2)C1` (centres undefined), -11.9%; to `CCc1nc(C2CCCN2C(=O)CCCn2cccn2)no1` (centres undefined), -7.2%. The same measure for `Cc1nc(COc2ccc(CNCC3CN(C)CCO3)cc2)cs1` (centres undefined): 20.1%; for `COCCOc1cccc(C(=O)N2CCCC(n3cccn3)C2)c1` (centres undefined): -14.7%; for `CN(Cc1noc(C2CC2)n1)C1CCN(Cc2nnc(C3CC3)o2)C1` (centres undefined): -3.86%.

For the compound `CC(=O)N(Cc1noc(C)n1)C1CCN(CCOc2ccccc2)C1` (centres undefined), the cytotoxicity at 70.5 h was determined as 1.16%. The same measure for `Cc1nc(CN2CCC(N(C)Cc3noc(C4CC4)n3)C2)oc1C` (centres undefined): 4.91%; for `Cc1nc(CN(C)C2CCN(Cc3ccc4ccccc4n3)C2)no1` (centres undefined): 20.5%; for `COCCNC(=O)Nc1ccc(F)c(C(N)=O)c1`: -6.9%.

For the compound `CC(C)c1cc(NC(=O)CN2CCNC(=O)C2)on1`, the cytotoxicity at 70.5 h was -5.09%. To `CN1CCC/C1=N\S(=O)(=O)c1ccc(NC(=O)CCc2cccs2)cc1` belongs -1.04%; to `CC(C)C(NC(=O)Cn1ccc(=O)n(C)c1=O)c1ccc(F)cc1` (centres undefined), -13.2%; to `COc1c(CNC2CCSc3ccc(F)cc32)c(C)nn1C` (centres undefined), 25.9%.
